Results taken from US6656509B1, “Combination of selenium-containing compounds with cytostatics” (Biosyn Arzneimittel GmbH, priority 1998, dated 2003).
Like-named read-outs stand apart in the source and are kept apart here.

Assays:
MAXF 401NL = experiment: clonogenic assay (colony forming assay); format: cell-based, human; details: MAXF 401/16, X186AM
Description: (§1) Solid human tumor xenografts growing subcutaneously in serial passages in thymus-aplastic nude mice (NMRI nu/nu strain, obtained from our own breeding facility) were removed under sterile conditions, the cells were mechanically disaggregated and subsequently incubated with an enzyme cocktail consisting of collagenase (1.2-1.8 U/ml, Worthington), DNAse (375 U/ml, Boehringer Mannheim) und hyaluronidase (29 U/ml, Boehringer Mannheim) in RPMI 1640 at 37° C. for 30 minutes. The cell mixture was passed through sieves of 200 μm and 50 μm mesh size and washed thereafter twice with PBS. The percentage of viable cells was determined in a Neubauer counting chamber using trypan blue exclusion.
(§2) The clonogenic assay was performed according to a modified two-layer soft agar assay described by Hamburger and Salmon (Hamburger and Salmon, Science, 197: 461463, 1977). The bottom layer consisted of 0.2 ml Iscoves' Modified Dulbecco's Medium with 20% fetal calf serum and 0.75% agar. 8×10^3 to 1,6×10^4 cells were added to 0.2 ml of the same culture medium together with 0.4% agar and placed in already coated 24-multiwell dishes. Test substances were applied by continuous exposure (drug overlay) in 0.2 ml medium. Every dish included six control wells containing the vehicle- and drug-treated groups in triplicate at six concentrations.
(§3) Cultures were incubated at 37° and 7% CO2 in a humidified atmosphere for 5 to 15 days (depending on the doubling time of the tumor stem cells) and monitored for colony growth using an inverted microscope. Within this period, in vitro tumor growth led to the formation of colonies with a diameter of ≧50 μm. At the time of maximum colony formation counts were performed with an automatic image analysis system (OMNICOM Fas IV, Biosys GmbH). 24 hours prior to this assay, vital colonies were stained with a sterile aqueous solution of 2-(4-iodophenyl)-3-(4-nitrophenyl)-5-phenyltetrazolium chloride (1 mg/ml, 100 μI/well). Drug effects were expressed in terms of the percentage of surviving cells, obtained by comparison of the mean number of colonies in the treated plates with the mean colony count of the untreated controls (test-versus-control-group value, T/C=colony countTreated Group*100/colony countControl Group).
(§4) Coefficient of variation in the control group ≦50%. IC50 and IC70 values were determined by plotting compound concentration versus cell survival rate. Mean IC50 and IC70 values were calculated according to the formula: [formula]
(§5) with x=specific tumor xenograft and n=total number of tumor xenografts studied. If an IC50 or IC70 value could not be determined within the examined dose range, the lowest or highest concentration studied was used for the calculation.

PRXF PC3M = experiment: clonogenic assay (colony forming assay); format: cell-based, human; details: PRXF PC3M/3; X189/AM
Description: as §1, §2, §3, §4, §5

human tumor xenografts = experiment: clonogenic assay, all 12 xenografts (means, active/total); format: cell-based
Description: The cell mixture was passed through sieves of 200 μm and 50 μm mesh size and washed thereafter twice with PBS. The percentage of viable cells was determined in a Neubauer counting chamber using trypan blue exclusion.
8×10^3 to 1,6×10^4 cells were added to 0.2 ml of the same culture medium together with 0.4% agar and placed in already coated 24-multiwell dishes. Test substances were applied by continuous exposure (drug overlay) in 0.2 ml medium. Every dish included six control wells containing the vehicle- and drug-treated groups in triplicate at six concentrations.
as §3, with “24 hours prior to this assay, vital colonies were stained with a sterile aqueous solution of 2-(4-iodophenyl)-3-(4-nitrophenyl)-5-phenyltetrazolium chloride (1 mg/ml, 100 μI/well).” left out
as §4, §5

[1] = oral; cited from earlier work
[2] = cited from earlier work
[3] = cited from earlier work; remark: listed apart in the source
[4] = corresponding selenium concentration
[5] = mean over the xenografts studied

SMILES: O=[Se]([O-])[O-].[Na+].[Na+] [sodium selenite]
- Test/control (%) at drug concentration [μM] 1. (MAXF 401NL): 74%
- Test/control (%) at drug concentration [μM] 10. (MAXF 401NL): 66%
- Test/control (%) at drug concentration [μM] 100. (MAXF 401NL): 8%
- Test/control (%) at drug concentration [μM] .1 (MAXF 401NL): 53%
- Test/control (%) class at drug concentration [μM] 1. (MAXF 401NL): − (− (T/C ≧ 50%))
- Test/control (%) class at drug concentration [μM] 10. (MAXF 401NL): − (− (T/C ≧ 50%))
- Test/control (%) class at drug concentration [μM] 100. (MAXF 401NL): +++ (+++ (T/C ≦ 10%))
- Test/control (%) class at drug concentration [μM] .1 (MAXF 401NL): − (− (T/C ≧ 50%))
- Test/control (%) at drug concentration [μM] .001 (MAXF 401NL; s result of a dish): 67%
- Test/control (%) at drug concentration [μM] .01 (MAXF 401NL; s result of a dish): 81%
- Test/control (%) class at drug concentration [μM] .001 (MAXF 401NL; s result of a dish): − (− (T/C ≧ 50%))
- Test/control (%) class at drug concentration [μM] .01 (MAXF 401NL; s result of a dish): − (− (T/C ≧ 50%))
- Test/control (%) at drug concentration [μM] 1. (PRXF PC3M): 85%
- Test/control (%) at drug concentration [μM] 10. (PRXF PC3M): 38%
- Test/control (%) at drug concentration [μM] 100. (PRXF PC3M): 1%
- Test/control (%) at drug concentration [μM] .001 (PRXF PC3M): 91%
- Test/control (%) at drug concentration [μM] .01 (PRXF PC3M): 91%
- Test/control (%) at drug concentration [μM] .1 (PRXF PC3M): 89%
- Test/control (%) class at drug concentration [μM] 1. (PRXF PC3M): − (− (T/C ≧ 50%))
- Test/control (%) class at drug concentration [μM] 10. (PRXF PC3M): + (+ (30% ≦ T/C < 50%))
- Test/control (%) class at drug concentration [μM] 100. (PRXF PC3M): +++ (+++ (T/C ≦ 10%))
- Test/control (%) class at drug concentration [μM] .001 (PRXF PC3M): − (− (T/C ≧ 50%))
- Test/control (%) class at drug concentration [μM] .01 (PRXF PC3M): − (− (T/C ≧ 50%))
- Test/control (%) class at drug concentration [μM] .1 (PRXF PC3M): − (− (T/C ≧ 50%))
- T/C values in all xenografts (human tumor xenografts; 100 μM): below 20%
- active(++, +++)/total (human tumor xenografts; 1. μM): 0/12
- active(++, +++)/total xenografts only, percent (human tumor xenografts; 1. μM): 0%
- active(++, +++)/total (human tumor xenografts; 10. μM): 2/12
- active(++, +++)/total xenografts only, percent (human tumor xenografts; 10. μM): 17%
- active(++, +++)/total (human tumor xenografts; 100. μM): 12/12
- active(++, +++)/total xenografts only, percent (human tumor xenografts; 100. μM): 100%
- active(++, +++)/total (human tumor xenografts; .001 μM): 0/12
- active(++, +++)/total xenografts only, percent (human tumor xenografts; .001 μM): 0%
- active(++, +++)/total (human tumor xenografts; .01 μM): 0/12
- active(++, +++)/total xenografts only, percent (human tumor xenografts; .01 μM): 0%
- active(++, +++)/total (human tumor xenografts; .1 μM): 0/12
- active(++, +++)/total xenografts only, percent (human tumor xenografts; .1 μM): 0%
- cytotoxic effect (human tumor xenografts; amounts up to 1 μM): no distinct cytotoxic effect
- mean IC50 as selenium concentration (human tumor xenografts; [4]): 1,2 μg/ml
- mean IC70 as selenium concentration (human tumor xenografts; [4]): 2.1 µg/mL
- IC50 (human tumor xenografts; [5]): 15.5 µM
- mean IC70 (human tumor xenografts; [5]): 27 µM
- intestinal absorption, sometimes [1]: over 90%
- dosage considered harmless in sensitive persons ([2]; humans, sensitive persons): up to 500 μg per day
- safe maximum daily intake of selenium ([2]; humans, inferred from chronic toxicity observations): 820 µg
- daily supply after which clinical signs of selenosis were observed ([2]; study carried out in China): 3200 to 6700 µg
- plasma selenium ([3]; 8 hours after 10 mg selenium as sodium selenite): 770 μg/I
- plasma selenium ([3]; 16 hours after 10 mg selenium as sodium selenite): 430 μg/I
- time until selenium level in plasma again reached its initial value ([3]; after 10 mg selenium as sodium selenite): 24 h
- dose from which gastrointestinal toxicity was observed (reversible) ([3]; infusion, tumor patients): about 20 mg selenium
- selenium level in plasma ([3]; within 30 minutes after 10 mg selenium as sodium selenite, infused, rose from 200 μg/l): 1200 µg/L
